According to ChEMBL document CHEMBL5729440, “Compounds and methods for treating oxalate-related diseases” (2022):

Molecular target: T1, 2-Hydroxyacid oxidase 1 (Homo sapiens, UniProt Q9UJM8)
T1 sequence (Q9UJM8 whole entry): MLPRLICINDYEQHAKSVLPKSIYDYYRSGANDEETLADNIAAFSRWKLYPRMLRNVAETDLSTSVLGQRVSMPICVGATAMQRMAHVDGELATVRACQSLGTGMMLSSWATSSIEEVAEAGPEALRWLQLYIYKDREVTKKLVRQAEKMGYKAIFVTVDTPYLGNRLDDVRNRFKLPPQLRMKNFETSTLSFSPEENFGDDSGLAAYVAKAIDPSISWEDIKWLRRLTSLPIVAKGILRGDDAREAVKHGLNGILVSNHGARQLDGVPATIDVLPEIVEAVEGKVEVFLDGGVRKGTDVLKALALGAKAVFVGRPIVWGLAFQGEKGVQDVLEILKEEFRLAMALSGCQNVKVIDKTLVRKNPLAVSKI
Test: In-Vitro Human Glycolate Oxidase (hGOX) Assay: The in-vitro glycolate oxidase assay was performed using recombinant full-length human hydroxyacid oxidase 1 (HAO1), the equivalents of hGOX. The enzyme was obtained from AbCam (Catalog #ab113144) and was purified using conventional chromatography to >95% purity. Purified HAO1 was dissolved in assay buffer consisting of 10 mM NaCl, 110 mM KCl, 2 mM MgCl2, 50 mM HEPES (pH 7.4), and 0.01% Triton™ X-100. The assay used Corning 3575 384-well flat bottom, low flange, non-binding surface, black polystyrene plates.Test compounds in DMSO were preincubated at different concentrations with purified recombinant human GO (6 nM) for 10 min, followed by the addition of glycolate substrate (85 μM) to start the reaction. The plates were incubated for 10 min at room temperature, at which point Amplex red reagent (50 μM) was added.The fluorescence intensity signal was measured on a VariosKan LUX instrument using an excitation of 560 nm and an emission of 590 nm. The IC50 values were calculated using Graphpad Prism.

IC50: 4.7 µM
SMILES: CC(C)CC#Cc1cccc(S(=O)(=O)c2[nH]nnc2C(=O)O)c1
